Experimental data published in patent publication US20210355065A1, “CB-0406 tromethamine salt” (CymaBay Therapeutics, Inc., priority 2020, published 2021).

Key:
CYP 2C9 = CYP 2C9 (Homo sapiens, UniProt P11712); settings: tolbutamide hydroxylation assay; relative to (S)-enantiomer; cited from earlier work
[1] = at 95% relative humidity relative to weight at 5% relative humidity; approx. 0.2 equivalents of water; essentially completely reversible
Experimental: A DVS analysis of CB-0406 tromethamine salt was performed using a VTI SGA-100 Vapor Sorption Analyzer. The sample was not dried prior to analysis, and data were not corrected for the initial moisture content of the sample. Equilibrium criteria used for analysis were less than 0.010% weight change in 5 minutes, with a maximum equilibration time of 3 hours if the weight criterion was not met. […] Sodium chloride and polyvinylpyrrolidone were used as calibration standards.

[2] = 75% RH and 41° C.
Experimental: Relative humidity (RH) stressing of CB-0406 tromethamine salt was performed by placing solid CB-0406 tromethamine salt in an RH chamber containing a saturated aqueous solution of sodium chloride (˜75% RH), potassium chloride (˜84% RH, RT/-82% RH, 40° C.), sodium bromide (˜58% RH, RT), or potassium sulfate (˜97% RH, RT/-96% RH, 40° C.), with excess salt present. The chamber was sealed and left at ambient temperature or placed in an oven at elevated temperature.

[3] = Description: CB-0406 tromethamine salt has been characterized using DSC, TGA, XRPD, hot stage microscopy, and solution ^1H NMR. CB-0406 tromethamine salt has also been tested by relative humidity stressing, and its solubility measured in simulated intestinal fluid without pancreatin.

CYP 2C9, sequence (P11712 whole entry, species assumed): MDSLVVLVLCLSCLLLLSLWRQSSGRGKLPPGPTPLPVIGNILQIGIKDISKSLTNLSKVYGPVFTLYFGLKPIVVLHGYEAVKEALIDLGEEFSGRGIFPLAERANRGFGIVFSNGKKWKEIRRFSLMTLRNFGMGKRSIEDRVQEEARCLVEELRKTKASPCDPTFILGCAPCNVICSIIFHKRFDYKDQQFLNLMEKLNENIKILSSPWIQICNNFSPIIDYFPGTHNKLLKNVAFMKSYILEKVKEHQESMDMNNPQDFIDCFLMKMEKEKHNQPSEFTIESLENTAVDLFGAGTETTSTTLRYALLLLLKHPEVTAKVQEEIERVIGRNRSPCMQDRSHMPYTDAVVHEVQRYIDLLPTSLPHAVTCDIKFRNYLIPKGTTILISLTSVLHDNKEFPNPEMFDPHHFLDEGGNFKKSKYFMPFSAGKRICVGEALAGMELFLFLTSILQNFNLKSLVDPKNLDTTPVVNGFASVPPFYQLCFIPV

Molecule	fold less active as an inhibitor of CYP 2C9 than its (S)-enantiomer (CYP 2C9)	net weight gain (DVS) [1]	appearance after RH stressing ([2]; at 7 and 9 days)	XRPD analysis after RH stressing ([2]; at 18 and 46 days, some increase in low angle scattering background)	solubility ([3]; simulated intestinal fluid without pancreatin)	solubility in simulated intestinal fluid, fold greater than that of CB-0406 ([3]; simulated intestinal fluid, relative to CB-0406)
O=C(O)[C@H](Oc1cccc(C(F)(F)F)c1)c1ccc(Cl)cc1 [CB-0406, (2R)-2-(4-chlorophenyl)-2-[3-(trifluoromethyl)phenoxy]acetic acid]	approximately 20 fold					
1,3-dihydroxy-2-(hydroxymethyl)propan-2-aminium (2R)-2-(4-chlorophenyl)-2-[3-(trifluoromethyl)phenoxy]acetate [CB-0406 tromethamine salt]		less than 0.8%	free-flowing solid	consistent with CB-0406 tromethamine salt	> 200 mg/mL	≥ 60 fold
